Measurements published in ChEMBL document CHEMBL3124768, “Substituted imidazothiazoles as inhibitors of viral polymerase” (ACS Med Chem Lett, 2014).
pEC50, pIC50: −log10 of the molar value.

Legend:
Hepatitis C virus = assay: Antiviral activity against Hepatitis C virus genotype 1b isolate Con1 assessed as inhibition of HCV replicon-encoded Renilla luciferase reporter activity after 72 hrs by cell-based replicon assay; format: functional, organism-based, Hepacivirus hominis; settings: isolate Con1, 72 h
[1] = Inhibition of HCV genotype 1b isolate BK truncated NS5B polymerase lacking C-terminal 21 amino acids assessed as inhibition of 33P-GTP incorporation using Poly(rC) template by scintillation counting analysis; design: species or system Hepatitis C virus (isolate BK)

SMILES	pEC50 (Hepatitis C virus)	pIC50 [1]
CNC(=O)c1c(-c2ccc(F)cc2)nc2sc(-c3cc(C(=O)NC(C)(C)c4ncccn4)ccc3C)cn12	> 6.60	6.00
CNC(=O)c1c(-c2ccc(F)cc2)nc2sc(-c3cc(C(=O)NC(C)(C)c4ccccc4)ccc3C)cn12	> 6.60	> 6.60
CNC(=O)c1c(-c2ccc(F)cc2)nc2sc(-c3cccc(C(=O)NC(C)(C)c4ccccc4)c3)cn12	> 6.60	> 6.60
CNC(=O)c1c(-c2ccc(F)cc2)nc2sc(-c3cccc(C(=O)NC4(c5ccccn5)CC4)c3)cn12	> 6.60	> 6.60
CNC(=O)c1c(-c2ccc(F)cc2)nc2sc(-c3cccc(C(=O)NC4(c5ccccc5)CC4)c3)cn12	> 6.60	6.00
CNC(=O)c1c(-c2ccc(F)cc2)nc2sc(-c3cc(C(=O)N[C@@H](C)c4ccccc4)ccc3C)cn12	> 6.60	> 6.60
CNC(=O)c1c(-c2ccc(F)cc2)nc2sc(-c3cc(C(=O)NC(C)(C)C(=O)OC)ccc3C)cn12	> 6.60	6.00
CNC(=O)c1c(-c2ccc(F)cc2)nc2sc(-c3cc(C(=O)NC4(C(C)C)CC4)ccc3C)cn12	> 6.60	6.00
CNC(=O)c1c(-c2ccc(F)cc2)nc2sc(-c3cc(C(=O)NC(C)(C)c4ccccc4)ccc3OC)cn12	> 6.60	> 6.60
CNC(=O)c1c(-c2ccc(F)cc2)nc2sc(-c3cc(C(=O)NC(C)(C)c4ccccc4)c(OC)cc3C)cn12	> 6.60	> 6.60
